Values quoted from earlier work in patent US8486621B2, “Nucleic acid-based matrixes” (Cornell Research Foundation, Inc., priority 2005, dated 2013).

Assays:
[1] = test system: major and minor grooves of the DNA molecules
[2] = test system: plasma glucose, insulin, and triglyceride levels; settings: in vivo
PPAR-gamma = biological target: T1, PPAR-gamma (Homo sapiens, UniProt P37231); settings: context-specific, some cell types
T1 sequence (P37231 1-505): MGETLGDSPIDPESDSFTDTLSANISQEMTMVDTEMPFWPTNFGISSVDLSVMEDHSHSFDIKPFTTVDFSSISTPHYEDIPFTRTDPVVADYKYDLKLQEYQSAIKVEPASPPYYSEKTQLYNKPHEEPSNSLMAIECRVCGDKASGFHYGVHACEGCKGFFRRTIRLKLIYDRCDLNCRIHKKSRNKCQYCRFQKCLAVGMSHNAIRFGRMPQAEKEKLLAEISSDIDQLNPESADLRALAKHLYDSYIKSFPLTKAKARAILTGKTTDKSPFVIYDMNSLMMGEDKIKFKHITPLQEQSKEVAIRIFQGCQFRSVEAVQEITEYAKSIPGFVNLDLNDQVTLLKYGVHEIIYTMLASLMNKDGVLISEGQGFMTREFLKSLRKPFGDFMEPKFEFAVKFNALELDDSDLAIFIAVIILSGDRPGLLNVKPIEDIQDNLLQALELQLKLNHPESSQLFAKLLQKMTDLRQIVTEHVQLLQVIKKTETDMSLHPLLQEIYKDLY

SMILES | affinity to DNA [1] | efficacy in lowering plasma glucose, insulin, and triglyceride levels [2] | potency relative to rosiglitazone [2] | mode of action at PPAR-gamma (PPAR-gamma)
CC[C@@]1(O)C(=O)OCc2c1cc1n(c2=O)Cc2cc3ccccc3nc2-1 [CPT, (S)-(+)-camptothecin] | high affinity | – | – | –
O=C1NC(=O)C(Cc2ccc3cc(OCc4ccccc4F)ccc3c2)S1 (stereo not shown) [netoglitazone, 5-[{6-(2-fluorobenzyl)oxy-2-naphthyl}methyl]-2,4-thiazolidinedione] | – | more efficacious than pioglitazone and troglitazone | about three-fold more potent than rosiglitazone | full agonist of PPAR-gamma and as a partial agonist or antagonist in others
